Reference: PMC2978498 (Angewandte Chemie (International ed. in English), 2009)
No end group written: not given here.

Experiments:
[1] = biological target: T1, Dvl PDZ domain (Dvl1 PDZ) (Mus musculus, UniProt P51141); test: binding test shown only in supplement
T1 sequence (P51141 248-337): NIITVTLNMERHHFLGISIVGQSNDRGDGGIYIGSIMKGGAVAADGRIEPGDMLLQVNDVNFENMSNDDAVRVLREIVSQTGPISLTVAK

[2] = biological target: T1, Dvl PDZ domain (Dvl1 PDZ); test: fluorescence polarization competition with Rox-DprC peptide; assay type: binding
[3] = biological target: T2, Dapper C-terminal peptide (Rox-DprC) (Xenopus laevis); test: fluorescence polarization
T2 chain: Rox-SGSLKLMTTV

Molecule: CSc1ccc(/C=C2/C(C)=C(CC(=O)O)c3cc(F)ccc32)cc1 [sulindac sulfide]
- binding test shown only in supplement [1]: binds to the PDZ domain with much weaker affinity (Figure S6)

Molecule: CC1=C(CC(=O)O)c2cc(F)ccc2/C1=C\c1ccc(S(C)(=O)=O)cc1 [sulindac sulfone]
- Ki [2]: 8 ± 0.2 µM

Molecule: CC1=C(CC(=O)O)c2cc(F)ccc2/C1=C\c1ccc([S@@+](C)[O-])cc1 [sulindac]
- Ki [2]: 10.7 ± 1.2 µM

B1: Dishevelled PDZ domain (Dvl1) PDZ (protein)
chain: NIITVTLNMERHHFLGISIVGQSNDRGDGGIYIGSIMKGGAVAADGRIEPGDMLLQVNDVNFENMSNDDAVRVLREIVS
- Kd [3]: ~8 µM
